In patent US5409932A, “Piperazine-substituted pyrroloanthracenes” (Bayer AG, priority 1993, dated 1995):

Assays:
[1] = system: Adjuvant Arthritis model in the Rat; experiment: Adjuvant Arthritis model in the Rat (paw swelling); assay type: in vivo; conditions: Lewis rats; for inhibition in vivo at 10 mg/kg: Rattus norvegicus, ip, 384 h, 10 mg/kg i.p., days 0, 1, 2, 5, 7, 9, 12 and 14, day 16 vs day 0, read-out: Inhibition of the swelling (%), after administration of 10 mg/kg i.p.
Protocol: Adjuvant Arthritis model in the Rat
Freund's adjuvant (FA) is prepared by addition of 10 mg/ml of heat-killed Mycobacterium butyricum to extra-heavy mineral oil. Lewis rats receive a 0.1 ml injection of FA (1 mg/animal) subcutaneously in the right hind paw. An acute inflammation takes place there, which is characterized by reddening, edema and a predominant neutrophilic cell infiltration (primary reaction). Tumescent areas in the treated paw on day 5 are followed between day 10-12 by an increase in the swelling (chronic inflammatory reaction) and the occurrence of a swelling in the opposite untreated paw (secondary immune response).
The cell infiltration of the chronic inflammation and the second immune response are mainly mononuclear, which indicates the presence of T-cell mediated immunity. The animals are observed daily, and the swelling is measured in millimeters on days 12 and 16 using a hand-adjustable micrometer. The swelling reaches its peak on the 16th day, on which the animals are sacrificed and tissue samples are taken for histological evaluation.
The extent of the swelling is determined by calculation of the greatest difference in the malleolus diameter between the 16th and the 0th day.
The animals receive the compounds according to the invention in a suspension of 5% polyethylene glycol and 0.5% Tween 80 in phosphate buffer solution p.o. or i.p. on days 0, 1, 2, 5, 7, 9, 12 and 14 [cf. for this purpose L. Sokoloff, 1984, Int. Rev. Exp. Pathol. 26, 107; M. E. J. Bittingham et al., 1989, J. Exp. Med. 171, 339; K. M. Conholly et al., 1989, Agents and Actions 27, 328].

[2] = system: human T cells; experiment: Inhibition of 5-HT-dependent T Cell Proliferation; assay type: cell-based; conditions: monocyte-free human T cells stimulated with PWM and 5-HT, 3H-thymidine incorporation, 7 days
Source text: The in vitro activity of the compounds according to the invention results from their capability to inhibit T cell proliferation, which is previously stimulated by serotonin.
Inhibition of 5-HT-dependent T Cell Proliferation
Peripheral mononuclear blood cells (PBMC) are obtained from the buffy coat of the blood of healthy subjects. After isolation by means of isolymph gradients (Pharmacia), the PBMC are washed twice and used directly. Purified T cells are obtained by E rosette formation with sheep erythrocytes [cf. Blue, M.-L. , J. F. Daley, H. Levine, K. A. Craig and S. F. Schlossmann, 1986, Biosynthesis and surface expression of T8 by peripheral blood T4+cells in vitro, J. Immunol. 137, 1202]. Monocytes are partially removed by adhesion to tissue culture plates or flasks. PBMC, T cells or purified T cells (depleted in monocytes) at 5×10^5 /ml, 100 μl/well are cultured in RPMI 1640 medium with 10% fetal calf serum (GIBCO) and L-glutamine in 96-well microculture plates (Becton--Dickinson)under a 5% CO2 atmosphere at 37° C. for 7 days. The cultures are treated with 1 μCi of ^3 H-thymidine for 6 h on the 7th day and collected on filter paper, and the incorporated radioactivity is determined by means of liquid scintillation counting.
The test substances are dissolved in 10 mM HCl in order to achieve a final concentration of 1 mM in each case. The compounds are diluted serially 3×with medium in order to obtain a final concentration between 33 μM-0.1 μM. PWM (1:200, pokeweed mitogen) and 5-HT (100 μm, serotonin), which contain the test substances, are added to monocyte-free human T cells. The positive control (maximum proliferation) is obtained from cultures containing T cells, PWM and 5-HT. The negative control (minimal proliferation) is obtained from cultures containing T cells and PWM without 5-HT. The inhibitory activity of the test substances is expressed as the IC50 in μM. (see also WO 92/04015)

Cc1ccc(N2CCN(CCCN3CC4C5c6ccccc6C(c6ccccc65)C4C3)CC2)c(C)c1 (stereo not drawn) [Example 90] gave an inhibition in vivo at 10 mg/kg [1] of 45% and an IC50 ([2]; Homo sapiens, T-cell) of 5 µM.

CC12C(=O)N(CCCN3CCN(c4ccccc4)CC3)C(=O)C1C1c3ccccc3C2c2ccccc21 (stereo not drawn) [Example 39] gave an inhibition in vivo at 10 mg/kg [1] of 20% and an IC50 ([2]; Homo sapiens, T-cell) greater than 10 µM.

c1ccc(N2CCN(CCCCCN3CC4C5c6ccccc6C(c6ccccc65)C4C3)CC2)cc1 (stereo not drawn) [Example 63] gave an inhibition in vivo at 10 mg/kg [1] of 26% and an IC50 ([2]; Homo sapiens, T-cell) of 0.5 µM.

In the case of c1ccc(N2CCN(CCN3CC4C5c6ccccc6C(c6ccccc65)C4C3)CC2)cc1 (stereo not drawn) [Example 60], the inhibition in vivo at 10 mg/kg [1] is reported as 40% and the IC50 ([2]; Homo sapiens, T-cell) is reported as 5 µM.

Molecule O=C1C2C3c4ccccc4C(CO)(c4ccccc43)C2C(=O)N1CCCN1CCN(c2ccc(F)cc2)CC1 (stereo not drawn) [Example 33] has an inhibition in vivo at 10 mg/kg [1] of 33% and an IC50 ([2]; Homo sapiens, T-cell) greater than 10 µM.

Clc1ccccc1N1CCN(CCCN2CC3C4c5ccccc5C(c5ccccc54)C3C2)CC1 (stereo not drawn) [Example 82] was tested, and the inhibition in vivo at 10 mg/kg [1] was 35% and the IC50 ([2]; Homo sapiens, T-cell) was 5 µM.

Cc1cccc(C)c1N1CCN(CCCN2CC3C4c5ccccc5C(c5ccccc54)C3C2)CC1 (stereo not drawn) [Example 88] was tested, and the inhibition in vivo at 10 mg/kg [1] was 73% and the IC50 ([2]; Homo sapiens, T-cell) was 1 µM.

In the case of Clc1ccc(N2CCN(CCCN3CC4C5c6ccccc6C(c6ccccc65)C4C3)CC2)cc1 (stereo not drawn) [Example 108], the “Inhibition of the swelling (%), after administration of 10 mg/kg i.p.” value ([1]; days 0, 1, 2, 5, 7, 9, 12 and 14, day 16 vs day 0) is reported as 55% and the IC50 [2] is reported as 4 µM.

In the case of Cc1ccc(N2CCN(CCCCN3CC4C5c6ccccc6C(c6ccccc65)C4C3)CC2)cc1 (stereo not drawn) [Example 74], the inhibition in vivo at 10 mg/kg [1] is reported as 76% and the IC50 ([2]; Homo sapiens, T-cell) is reported as 0.6 µM.
